Laboratory results taken from ChEMBL document CHEMBL4043168, “The design and SAR of a novel series of 2-aminopyridine based LRRK2 inhibitors” (Bioorg Med Chem Lett, 2017).

Legend:
[1] = target: Tyrosine-protein kinase ABL2 (Homo sapiens) (UniProt P42684); assay: Inhibition of ARG labeling at […] (LMTGDTYTAHAGAKFPIK) in human PBMC at 1 uM
[2] = target: Serine/threonine-protein kinase B-raf (Homo sapiens) (UniProt P15056); assay: Inhibition of BRAF labeling at conserved Lys2 (DLKSNNIFLHEDLTVK) in human PBMC at 1 uM
[3] = target: Mitogen-activated protein kinase 7 (Homo sapiens) (UniProt Q13164); assay: Inhibition of Erk5 conserved Lys2 (DLKPSNLLVNENCELK) in human PBMC at 1 uM
Chain of Mitogen-activated protein kinase 7 (Homo sapiens) (Q13164 2-816 limits assumed): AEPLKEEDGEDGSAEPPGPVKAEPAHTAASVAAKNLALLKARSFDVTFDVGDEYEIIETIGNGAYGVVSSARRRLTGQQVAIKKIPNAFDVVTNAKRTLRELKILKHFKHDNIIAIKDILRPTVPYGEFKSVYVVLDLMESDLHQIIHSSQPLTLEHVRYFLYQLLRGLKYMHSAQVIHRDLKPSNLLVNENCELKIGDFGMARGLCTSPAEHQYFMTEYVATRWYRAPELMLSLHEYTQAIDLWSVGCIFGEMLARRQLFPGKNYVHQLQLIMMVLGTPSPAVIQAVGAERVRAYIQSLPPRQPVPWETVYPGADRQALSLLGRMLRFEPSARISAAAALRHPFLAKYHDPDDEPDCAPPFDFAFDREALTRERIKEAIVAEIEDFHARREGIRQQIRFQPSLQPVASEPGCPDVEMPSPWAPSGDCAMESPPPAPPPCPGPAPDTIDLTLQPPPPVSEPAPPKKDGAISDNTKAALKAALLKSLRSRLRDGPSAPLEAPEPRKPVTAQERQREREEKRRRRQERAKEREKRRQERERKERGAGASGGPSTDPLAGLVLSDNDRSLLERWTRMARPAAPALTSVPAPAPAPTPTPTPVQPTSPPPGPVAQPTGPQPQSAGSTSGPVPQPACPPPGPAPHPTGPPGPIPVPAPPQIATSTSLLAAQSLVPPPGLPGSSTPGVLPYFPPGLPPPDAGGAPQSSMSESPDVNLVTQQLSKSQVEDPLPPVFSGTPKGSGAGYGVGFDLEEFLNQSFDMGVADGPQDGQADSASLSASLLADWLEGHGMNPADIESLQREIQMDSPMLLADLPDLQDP

[4] = target: T1, Tyrosine-protein kinase JAK3 (Homo sapiens) (UniProt P52333); assay: Inhibition of JAK3 domain2 activation Loop (IADFGLAKLLPLDKDYYVVR) in human PBMC at 1 uM
T1 sequence (whole entry): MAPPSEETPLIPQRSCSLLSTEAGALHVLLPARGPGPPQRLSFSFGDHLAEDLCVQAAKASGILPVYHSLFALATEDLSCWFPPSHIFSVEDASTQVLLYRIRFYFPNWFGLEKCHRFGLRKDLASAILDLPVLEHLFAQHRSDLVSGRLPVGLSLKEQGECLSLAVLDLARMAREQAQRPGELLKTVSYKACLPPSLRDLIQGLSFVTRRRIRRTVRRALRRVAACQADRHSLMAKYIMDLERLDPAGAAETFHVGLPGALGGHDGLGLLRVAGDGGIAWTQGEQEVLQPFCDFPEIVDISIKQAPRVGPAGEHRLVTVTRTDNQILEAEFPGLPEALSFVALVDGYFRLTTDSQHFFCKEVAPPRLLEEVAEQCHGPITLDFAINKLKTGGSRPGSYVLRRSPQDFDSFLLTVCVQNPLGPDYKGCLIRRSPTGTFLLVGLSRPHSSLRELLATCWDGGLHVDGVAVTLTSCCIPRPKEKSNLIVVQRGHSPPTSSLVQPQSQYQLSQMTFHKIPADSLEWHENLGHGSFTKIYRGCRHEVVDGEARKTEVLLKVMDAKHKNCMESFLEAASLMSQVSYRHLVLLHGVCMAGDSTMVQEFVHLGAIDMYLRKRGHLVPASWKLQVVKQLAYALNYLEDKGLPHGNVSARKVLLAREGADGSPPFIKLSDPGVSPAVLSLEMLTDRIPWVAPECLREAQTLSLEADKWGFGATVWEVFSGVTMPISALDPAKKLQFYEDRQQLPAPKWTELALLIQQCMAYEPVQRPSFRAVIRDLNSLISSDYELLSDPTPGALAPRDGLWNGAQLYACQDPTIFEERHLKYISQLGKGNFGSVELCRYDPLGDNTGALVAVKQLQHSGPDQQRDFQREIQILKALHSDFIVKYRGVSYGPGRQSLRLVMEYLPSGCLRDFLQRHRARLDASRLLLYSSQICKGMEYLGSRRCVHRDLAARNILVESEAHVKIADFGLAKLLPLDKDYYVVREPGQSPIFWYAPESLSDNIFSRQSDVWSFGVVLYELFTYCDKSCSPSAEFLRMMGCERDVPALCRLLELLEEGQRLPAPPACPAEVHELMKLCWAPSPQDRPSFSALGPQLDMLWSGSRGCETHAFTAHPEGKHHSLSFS

[5] = target: 1-phosphatidylinositol 3-phosphate 5-kinase (Homo sapiens) (UniProt Q9Y2I7); assay: Inhibition of PIP5K3 ATP binding site (GGKSGAAFYATEDDRFILK) in human PBMC at 1 uM
[6] = target: Calcium/calmodulin-dependent protein kinase type II subunit delta (Homo sapiens) (UniProt Q13557); assay: Inhibition of CaMK2d labeling at conserved Lys2 (DLKPENLLLASK) in human PBMC at 0.1 uM
Chain of Calcium/calmodulin-dependent protein kinase type II subunit delta (Homo sapiens) (Q13557 whole entry, the tested form may be a part): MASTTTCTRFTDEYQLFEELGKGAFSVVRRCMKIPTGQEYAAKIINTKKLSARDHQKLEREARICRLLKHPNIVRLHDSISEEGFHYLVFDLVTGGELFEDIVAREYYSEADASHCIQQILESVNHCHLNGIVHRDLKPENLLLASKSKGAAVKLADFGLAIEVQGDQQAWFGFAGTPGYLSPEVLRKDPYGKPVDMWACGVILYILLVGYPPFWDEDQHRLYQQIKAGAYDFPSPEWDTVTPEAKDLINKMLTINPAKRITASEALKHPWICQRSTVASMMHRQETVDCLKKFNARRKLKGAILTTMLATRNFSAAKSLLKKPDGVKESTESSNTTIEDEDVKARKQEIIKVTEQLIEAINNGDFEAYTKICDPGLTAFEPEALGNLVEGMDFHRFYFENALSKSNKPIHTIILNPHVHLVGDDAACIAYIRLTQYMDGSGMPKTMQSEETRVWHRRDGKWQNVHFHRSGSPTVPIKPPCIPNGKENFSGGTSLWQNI

[7] = target: T1, Tyrosine-protein kinase JAK3 (Homo sapiens); assay: Inhibition of JAK3 domain2 conserved Lys1 (YDPLGDNTGALVAVKQLQHSGPDQQR) in human PBMC at 0.1 uM
[8] = target: Mitogen-activated protein kinase 10 (Homo sapiens) (UniProt P53779); assay: Inhibition of JNK3 conserved Lys2 (DLKPSNIVVK) in human PBMC at 0.1 uM
Chain of Mitogen-activated protein kinase 10 (Homo sapiens) (P53779 whole entry): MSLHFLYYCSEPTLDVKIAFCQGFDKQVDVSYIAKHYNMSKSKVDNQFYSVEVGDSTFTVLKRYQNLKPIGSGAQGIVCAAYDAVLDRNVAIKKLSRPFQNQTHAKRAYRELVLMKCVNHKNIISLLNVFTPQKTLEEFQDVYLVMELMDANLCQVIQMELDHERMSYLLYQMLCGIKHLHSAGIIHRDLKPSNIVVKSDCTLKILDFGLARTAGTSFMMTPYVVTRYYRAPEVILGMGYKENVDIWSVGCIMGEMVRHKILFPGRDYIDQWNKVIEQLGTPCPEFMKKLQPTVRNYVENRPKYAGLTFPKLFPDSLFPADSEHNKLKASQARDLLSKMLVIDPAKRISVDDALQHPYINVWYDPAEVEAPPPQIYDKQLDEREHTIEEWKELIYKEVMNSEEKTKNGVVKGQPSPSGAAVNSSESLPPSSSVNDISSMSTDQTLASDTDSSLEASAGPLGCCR

[9] = target: Mitogen-activated protein kinase kinase kinase 2 (Homo sapiens) (UniProt Q9Y2U5); assay: Inhibition of MAP3K2 conserved Lys2 (DIKGANILR) in human PBMC at 0.1 uM
Chain of Mitogen-activated protein kinase kinase kinase 2 (Homo sapiens) (Q9Y2U5 whole entry, the tested form may be a part): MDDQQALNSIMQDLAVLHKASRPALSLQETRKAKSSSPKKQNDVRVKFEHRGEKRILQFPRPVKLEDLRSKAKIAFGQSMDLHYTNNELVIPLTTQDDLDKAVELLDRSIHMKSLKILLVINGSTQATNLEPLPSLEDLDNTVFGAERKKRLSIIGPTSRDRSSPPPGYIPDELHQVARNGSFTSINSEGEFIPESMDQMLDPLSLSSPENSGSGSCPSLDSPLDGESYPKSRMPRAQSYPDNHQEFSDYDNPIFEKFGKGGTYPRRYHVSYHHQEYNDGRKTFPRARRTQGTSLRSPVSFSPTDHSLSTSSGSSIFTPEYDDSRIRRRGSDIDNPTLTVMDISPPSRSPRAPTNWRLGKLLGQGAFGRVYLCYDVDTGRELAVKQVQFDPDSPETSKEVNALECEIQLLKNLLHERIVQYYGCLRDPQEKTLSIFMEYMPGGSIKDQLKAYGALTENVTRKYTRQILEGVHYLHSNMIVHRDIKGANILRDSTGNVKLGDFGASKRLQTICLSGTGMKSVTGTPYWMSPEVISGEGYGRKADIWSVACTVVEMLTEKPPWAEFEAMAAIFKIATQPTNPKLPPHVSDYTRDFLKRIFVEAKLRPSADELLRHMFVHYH

[10] = target: Ribosomal protein S6 kinase alpha-3 (Homo sapiens) (UniProt P51812); assay: Inhibition of RSK2 domain1 ATP binding site (VLGQGSFGKVFLVK) in human PBMC at 0.1 uM
Chain of Ribosomal protein S6 kinase alpha-3 (Homo sapiens) (P51812 whole entry, the tested form may be a part): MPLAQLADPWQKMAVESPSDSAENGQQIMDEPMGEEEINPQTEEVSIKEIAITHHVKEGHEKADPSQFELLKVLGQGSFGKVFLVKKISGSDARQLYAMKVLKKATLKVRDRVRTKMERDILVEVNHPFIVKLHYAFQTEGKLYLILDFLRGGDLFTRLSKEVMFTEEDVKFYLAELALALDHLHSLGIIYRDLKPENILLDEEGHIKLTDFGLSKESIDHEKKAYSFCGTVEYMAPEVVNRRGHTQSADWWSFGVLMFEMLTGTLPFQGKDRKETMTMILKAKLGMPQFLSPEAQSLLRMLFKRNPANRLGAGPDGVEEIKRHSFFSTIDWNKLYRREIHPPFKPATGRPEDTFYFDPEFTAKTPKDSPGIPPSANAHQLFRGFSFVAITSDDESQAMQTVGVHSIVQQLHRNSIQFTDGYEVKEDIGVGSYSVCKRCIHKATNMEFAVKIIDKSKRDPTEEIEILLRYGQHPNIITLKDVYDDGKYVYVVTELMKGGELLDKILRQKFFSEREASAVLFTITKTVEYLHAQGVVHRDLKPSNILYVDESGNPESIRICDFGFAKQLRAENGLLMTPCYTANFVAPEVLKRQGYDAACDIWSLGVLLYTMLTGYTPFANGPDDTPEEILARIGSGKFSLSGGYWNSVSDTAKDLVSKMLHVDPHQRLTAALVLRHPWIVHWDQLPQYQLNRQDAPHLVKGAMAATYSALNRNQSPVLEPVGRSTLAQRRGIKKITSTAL

[11] = target: STE20-like serine/threonine-protein kinase (Homo sapiens) (UniProt Q9H2G2); assay: Inhibition of SLK conserved Lys2 (DLKAGNILFTLDGDIK) in human PBMC at 0.1 uM
Chain of STE20-like serine/threonine-protein kinase (Homo sapiens) (Q9H2G2 whole entry, looked up): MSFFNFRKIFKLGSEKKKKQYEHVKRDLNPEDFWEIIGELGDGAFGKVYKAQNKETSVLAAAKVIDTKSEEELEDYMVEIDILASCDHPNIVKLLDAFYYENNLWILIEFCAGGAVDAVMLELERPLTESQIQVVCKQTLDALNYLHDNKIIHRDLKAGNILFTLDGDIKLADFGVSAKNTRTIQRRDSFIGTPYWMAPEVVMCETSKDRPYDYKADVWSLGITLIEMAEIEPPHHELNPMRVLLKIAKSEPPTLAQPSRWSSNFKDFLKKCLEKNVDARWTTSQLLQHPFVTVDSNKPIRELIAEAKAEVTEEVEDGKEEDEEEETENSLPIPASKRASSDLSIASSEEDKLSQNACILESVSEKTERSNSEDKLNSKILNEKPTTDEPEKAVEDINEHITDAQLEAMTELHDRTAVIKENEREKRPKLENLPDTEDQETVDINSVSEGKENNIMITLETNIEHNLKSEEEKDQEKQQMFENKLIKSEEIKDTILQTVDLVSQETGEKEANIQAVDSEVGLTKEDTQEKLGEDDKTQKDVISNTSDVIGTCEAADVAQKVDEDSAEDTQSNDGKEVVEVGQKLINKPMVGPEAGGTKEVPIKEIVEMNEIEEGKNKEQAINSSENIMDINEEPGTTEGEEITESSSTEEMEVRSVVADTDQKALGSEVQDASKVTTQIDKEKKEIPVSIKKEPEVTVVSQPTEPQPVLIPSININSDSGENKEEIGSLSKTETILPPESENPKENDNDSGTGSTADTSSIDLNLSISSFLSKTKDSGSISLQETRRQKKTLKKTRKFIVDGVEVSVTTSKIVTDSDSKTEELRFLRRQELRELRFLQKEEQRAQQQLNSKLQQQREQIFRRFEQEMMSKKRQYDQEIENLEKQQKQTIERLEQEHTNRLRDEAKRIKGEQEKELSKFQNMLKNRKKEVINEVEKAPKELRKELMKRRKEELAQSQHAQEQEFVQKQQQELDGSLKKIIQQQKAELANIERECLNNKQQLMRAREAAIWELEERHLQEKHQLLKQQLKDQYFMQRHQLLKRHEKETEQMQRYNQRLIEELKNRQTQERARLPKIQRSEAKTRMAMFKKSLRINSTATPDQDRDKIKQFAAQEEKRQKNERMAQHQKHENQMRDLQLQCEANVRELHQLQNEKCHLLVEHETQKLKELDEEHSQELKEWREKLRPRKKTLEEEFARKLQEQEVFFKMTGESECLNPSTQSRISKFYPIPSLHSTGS

[12] = target: T2, Serine/threonine-protein kinase ULK3 (Homo sapiens) (UniProt Q6PHR2); assay: Inhibition of ULK3 conserved Lys2 (NISHLDLKPQNILLSSLEKPHLK) in human PBMC at 0.1 uM
T2 sequence (whole entry): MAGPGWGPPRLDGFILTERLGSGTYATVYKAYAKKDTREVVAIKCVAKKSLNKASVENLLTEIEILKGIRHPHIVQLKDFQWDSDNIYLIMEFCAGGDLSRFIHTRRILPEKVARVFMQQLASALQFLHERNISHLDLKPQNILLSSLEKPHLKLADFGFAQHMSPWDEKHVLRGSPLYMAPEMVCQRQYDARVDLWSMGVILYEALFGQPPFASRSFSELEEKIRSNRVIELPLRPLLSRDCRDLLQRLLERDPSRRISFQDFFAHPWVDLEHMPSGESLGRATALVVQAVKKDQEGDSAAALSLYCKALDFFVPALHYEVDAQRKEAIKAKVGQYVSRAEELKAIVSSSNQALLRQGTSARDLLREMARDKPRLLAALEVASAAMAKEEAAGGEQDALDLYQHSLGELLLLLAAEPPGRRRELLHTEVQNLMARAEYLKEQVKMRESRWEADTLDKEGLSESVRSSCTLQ

With CC(C)n1cc(-c2cc(-c3ccc(CN4CCOCC4)cc3)cnc2N)nn1 the inhibition [1] was 34.8%, the inhibition [2] was 11.4% and the inhibition [3] was 30%. For the same molecule, the inhibition [4] was 7.8%, the inhibition [5] was -9.2% and the inhibition [6] was -7.5%. For the same molecule, the inhibition [7] was -8%, the inhibition [8] was 25.1% and the inhibition [9] was 23.2%. The inhibition [10] was 3.1%, the inhibition [11] was 24.4% and the inhibition [12] was 27.2%.
